Assay results: patent publication US20230322767A1, “ARYL SUBSTITUTED PYRROLO-PYRIDINONES AND THERAPEUTIC USES THEREOF” (Bayer Aktiengesellschaft, priority 2020, published 2023)
Several values for one entry are separate records, joined by “and”; a condition that tells them apart may be missing. Equal values may be shown once.

Biological target: wild-type Epidermal Growth Factor Receptor (EGFR) (Homo sapiens (Human), UniProt P00533)
Assay: WT-EGFR Kinase Assay (TR-FRET, 2 mM ATP)
Assay type: biochemical
Conditions: EGFR Wildtyp 2 mM ATP IC50 [mol/l] (median), median or individual measurements
From the text: Inhibitory activity of compounds of the present invention against wild-type Epidermal Growth Factor Receptor (EGFR) was quantified employing the TR-FRET based EGFR assay as described in the following paragraphs.
Recombinant fusion protein of N-terminal Glutathion-S-Transferase (GST) and a fragment of human EGFR (amino acids R669 to A1210), expressed in Sf9 insect cells and purified via affinity chromatography using Glutathion Sepharose as described above, was used as kinase. As substrate for the kinase reaction the biotinylated peptide biotin-Ahx-[…] (C-terminus in amide form) was used which can be purchased e.g. form the company Biosynthan GmbH (Berlin-Buch, Germany).
For the assay 50 nl of a 100 fold concentrated solution of the test compound in DMSO was pipetted into either a black low volume 384 well microtiter plate or a black 1536 well microtiter plate (both Greiner Bio-One, Frickenhausen, Germany), 2 μL of a solution of EGFR in aqueous assay buffer [50 mM Hepes pH 7.0, 10 mM MgCl2, 1 mM dithiothreitol, 0.5 mM EGTA, 0.3 mM activated sodium ortho-vanadate, 0.005% (w/v) bovine serum albumin, 0.005% (v/v) Tween-20] were added and the mixture was incubated for 15 min at 22° C. to allow pre-binding of the test compounds to the enzyme before the start of the kinase reaction. […] The concentration of EGFR was adjusted depending of the activity of the enzyme lot and was chosen appropriate to have the assay in the linear range, typical concentration was […]. The reaction was stopped by the addition of 3 μL of a solution of HTRF detection reagents (83.3 nM streptavidine-XL665 [Cisbio Bioassays, Codolet, France] and 1.67 nM PT66-Tb-Cryptate, a terbium-cryptate labelled anti-phospho-tyrosine antibody from Cisbio Bioassays [instead of the PT66-Tb-cryptate PT66-Eu-Chelate from Perkin Elmer can also be used]) in an aqueous EDTA-solution (133.3 mM EDTA, 0.2% (w/v) bovine serum albumin in 50 mM HEPES pH 7.5).
The resulting mixture was incubated 1 h at 22° C. to allow the binding of the biotinylated phosphorylated peptide to the streptavidine-XL665 and the PT66-Tb-Cryptate. Subsequently the amount of phosphorylated substrate was evaluated by measurement of the resonance energy transfer from the PT66-Tb-Cryptate to the streptavidine-XL665. Therefore, the fluorescence emissions at 620 nm and 665 nm after excitation at 337 nm were measured in a HTRF reader, e.g. a Pherastar (BMG Labtechnologies, Offenburg, Germany) or a Viewlux (Perkin-Elmer). The ratio of the emissions at 665 nm and at 622 nm was taken as the measure for the amount of phosphorylated substrate.

Chain of wild-type Epidermal Growth Factor Receptor (EGFR) (P00533 669-1210): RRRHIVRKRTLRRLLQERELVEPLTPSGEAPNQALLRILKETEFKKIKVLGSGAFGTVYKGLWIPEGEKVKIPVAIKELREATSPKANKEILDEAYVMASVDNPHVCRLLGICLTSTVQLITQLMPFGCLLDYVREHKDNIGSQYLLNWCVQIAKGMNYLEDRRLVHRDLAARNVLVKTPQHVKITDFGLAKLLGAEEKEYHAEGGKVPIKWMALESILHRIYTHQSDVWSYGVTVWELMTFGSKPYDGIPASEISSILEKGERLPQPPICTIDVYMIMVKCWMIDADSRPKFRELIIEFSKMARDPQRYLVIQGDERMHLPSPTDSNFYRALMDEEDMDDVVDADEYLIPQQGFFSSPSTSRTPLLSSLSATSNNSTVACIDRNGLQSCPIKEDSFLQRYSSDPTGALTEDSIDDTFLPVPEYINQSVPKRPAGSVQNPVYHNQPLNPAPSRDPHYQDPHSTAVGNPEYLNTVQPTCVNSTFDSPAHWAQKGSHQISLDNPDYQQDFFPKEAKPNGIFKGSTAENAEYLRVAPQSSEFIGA

CN1CCc2[nH]c(-c3ccnc(NC(=O)C(CC(F)F)c4ccc(F)cc4)c3)c(-c3ccccc3)c2C1=O (racemic) [Example 002, 4,4-difluoro-2-(4-fluorophenyl)-N-[4-(5-methyl-4-oxo-3-phenyl-4,5,6,7-tetrahydro-1H-pyrrolo[3,2-c]pyridin-2-yl)pyridin-2-yl]butanamide]
IC50: > 20 µM

Cn1ccc2[nH]c(-c3ccnc(NC(=O)C(CC(F)F)c4ccc(F)cc4)c3)c(-c3ccccc3)c2c1=O (racemic) [Example 006, 4,4-difluoro-2-(4-fluorophenyl)-N-[4-(5-methyl-4-oxo-3-phenyl-4,5-dihydro-1H-pyrrolo[3,2-c]pyridin-2-yl)pyridin-2-yl]butanamide]
IC50: > 20 µM

CN1CCc2[nH]c(-c3ccnc(NC(=O)C(CC(F)F)c4ccc(F)cc4)c3)c(-c3cccnc3)c2C1=O (racemic) [Example 009, 4,4-difluoro-2-(4-fluorophenyl)-N-{4-[5-methyl-4-oxo-3-(pyridin-3-yl)-4,5,6,7-tetrahydro-1H-pyrrolo[3,2-c]pyridin-2-yl]pyridin-2-yl}butanamide]
IC50: > 20 µM

CC(C(=O)Nc1cc(-c2[nH]c3c(CC(F)(F)F)cn(C)c(=O)c3c2-c2ccccc2)ccn1)c1ccc(F)cc1 (racemic) [Example 014, 2-(4-fluorophenyl)-N-{4-[5-methyl-4-oxo-3-phenyl-7-(2,2,2-trifluoroethyl)-4,5-dihydro-1H-pyrrolo[3,2-c]pyridin-2-yl]pyridin-2-yl}propanamide]
IC50: > 20 µM

Cn1cc(CC(F)(F)F)c2[nH]c(-c3ccnc(NC(=O)C(CC(F)F)c4ccc(F)cc4)c3)c(-c3ccccc3)c2c1=O (racemic) [Example 018, 4,4-difluoro-2-(4-fluorophenyl)-N-{4-[5-methyl-4-oxo-3-phenyl-7-(2,2,2-trifluoroethyl)-4,5-dihydro-1H-pyrrolo[3,2-c]pyridin-2-yl]pyridin-2-yl}butanamide]
IC50: > 20 µM

CC(C(=O)Nc1cc(-c2[nH]c3c(CC(F)(F)F)cn(C)c(=O)c3c2-c2ccc(F)cc2)ccn1)c1ccc(F)cc1 (racemic) [Example 022, 2-(4-fluorophenyl)-N-{4-[3-(4-fluorophenyl)-5-methyl-4-oxo-7-(2,2,2-trifluoroethyl)-4,5-dihydro-1H-pyrrolo[3,2-c]pyridin-2-yl]pyridin-2-yl}propanamide]
IC50: > 20 µM

Cn1cc(CC(F)(F)F)c2[nH]c(-c3ccnc(NC(=O)C(CC(F)F)c4ccc(F)cc4)c3)c(-c3ccc(F)cc3)c2c1=O (racemic) [Example 026, 4,4-difluoro-2-(4-fluorophenyl)-N-{4-[3-(4-fluorophenyl)-5-methyl-4-oxo-7-(2,2,2-trifluoroethyl)-4,5-dihydro-1H-pyrrolo[3,2-c]pyridin-2-yl]pyridin-2-yl}butanamide]
IC50: > 20 µM

Cc1cn(C)c(=O)c2c(-c3ccc(F)cc3)c(-c3ccnc(NC(=O)C(C)c4ccc(F)cc4)c3)[nH]c12 (racemic) [Example 030, 2-(4-fluorophenyl)-N-{4-[3-(4-fluorophenyl)-5,7-dimethyl-4-oxo-4,5-dihydro-1H-pyrrolo[3,2-c]pyridin-2-yl]pyridin-2-yl}propanamide]
IC50: > 20 µM

Cc1cn(C)c(=O)c2c(-c3ccc(F)cc3)c(-c3ccnc(NC(=O)C(CC(F)F)c4ccc(F)cc4)c3)[nH]c12 (racemic) [Example 034, 4,4-difluoro-2-(4-fluorophenyl)-N-{4-[3-(4-fluorophenyl)-5,7-dimethyl-4-oxo-4,5-dihydro-1H-pyrrolo[3,2-c]pyridin-2-yl]pyridin-2-yl}butanamide]
IC50: > 20 µM

Cc1cn(C)c(=O)c2c(-c3ccccc3)c(-c3ccnc(NC(=O)C(C)c4ccc(F)cc4)c3)[nH]c12 (racemic) [Example 038, N-[4-(5,7-dimethyl-4-oxo-3-phenyl-4,5-dihydro-1H-pyrrolo[3,2-c]pyridin-2-yl)pyridin-2-yl]-2-(4-fluorophenyl)propanamide]
IC50: > 20 µM

Cc1cn(C)c(=O)c2c(-c3ccccc3)c(-c3ccnc(NC(=O)C(CC(F)F)c4ccc(F)cc4)c3)[nH]c12 (racemic) [Example 040, N-[4-(5,7-dimethyl-4-oxo-3-phenyl-4,5-dihydro-1H-pyrrolo[3,2-c]pyridin-2-yl)pyridin-2-yl]-4,4-difluoro-2-(4-fluorophenyl)butanamide]
IC50: > 20 µM

CC1(C)CNC(=O)c2c1[nH]c(-c1ccnc(NC(=O)C(CC(F)F)c3ccc(F)cc3)c1)c2-c1ccccc1 (racemic) [Example 043, N-[4-(7,7-dimethyl-4-oxo-3-phenyl-4,5,6,7-tetrahydro-1H-pyrrolo[3,2-c]pyridin-2-yl)pyridin-2-yl]-4,4-difluoro-2-(4-fluorophenyl)butanamide]
IC50: > 20 µM

CC(C(=O)Nc1cc(-c2[nH]c3c(c2-c2ccccc2)C(=O)NCC3(C)C)ccn1)c1ccc(F)cc1 (racemic) [Example 046, N-[4-(7,7-dimethyl-4-oxo-3-phenyl-4,5,6,7-tetrahydro-1H-pyrrolo[3,2-c]pyridin-2-yl)pyridin-2-yl]-2-(4-fluorophenyl)propanamide]
IC50: > 20 µM

CN1C(=O)c2c([nH]c(-c3ccnc(NC(=O)C(CC(F)F)c4ccc(F)cc4)c3)c2-c2ccccc2)CC12CCC2 (racemic) [Example 049, 4,4-difluoro-2-(4-fluorophenyl)-N-[4-(5′-methyl-4′-oxo-3′-phenyl-1′,4′,5′,7′-tetrahydrospiro[cyclobutane-1,6′-pyrrolo[3,2-c]pyridin]-2′-yl)pyridin-2-yl]butanamide]
IC50: > 20 µM

CC(C(=O)Nc1cc(-c2[nH]c3c(c2-c2ccccc2)C(=O)N(C)C2(CCC2)C3)ccn1)c1ccc(F)cc1 (racemic) [Example 052, 2-(4-fluorophenyl)-N-[4-(5′-methyl-4′-oxo-3′-phenyl-1′,4′,5′,7′-tetrahydrospiro[cyclobutane-1,6′-pyrrolo[3,2-c]pyridin]-2′-yl)pyridin-2-yl]propanamide]
IC50: > 20 µM

CN1CC(CC2CC2)c2[nH]c(-c3ccnc(NC(=O)Cc4ccc(F)cc4)c3)c(-c3ccccc3)c2C1=O (racemic) [Example 055, N-{4-[7-(cyclopropylmethyl)-5-methyl-4-oxo-3-phenyl-4,5,6,7-tetrahydro-1H-pyrrolo[3,2-c]pyridin-2-yl]pyridin-2-yl}-2-(4-fluorophenyl)acetamide]
IC50: 3.43 µM

CC(C(=O)Nc1cc(-c2[nH]c3c(CC4CC4)cn(C)c(=O)c3c2-c2ccccc2)ccn1)c1ccc(F)cc1 (racemic) [Example 058, N-{4-[7-(cyclopropylmethyl)-5-methyl-4-oxo-3-phenyl-4,5-dihydro-1H-pyrrolo[3,2-c]pyridin-2-yl]pyridin-2-yl}-2-(4-fluorophenyl)propanamide]
IC50: > 20 µM

Cn1cc(CC2CC2)c2[nH]c(-c3ccnc(NC(=O)C(CC(F)F)c4ccc(F)cc4)c3)c(-c3ccccc3)c2c1=O (racemic) [Example 060, N-{4-[7-(cyclopropylmethyl)-5-methyl-4-oxo-3-phenyl-4,5-dihydro-1H-pyrrolo[3,2-c]pyridin-2-yl]pyridin-2-yl}-4,4-difluoro-2-(4-fluorophenyl)butanamide]
IC50: > 20 µM

CN1CC(CC2CC2)c2[nH]c(-c3ccnc(NC(=O)Cc4ccc(F)cc4)c3)c(-c3ccc(F)cc3)c2C1=O (racemic) [Example 061, N-{4-[7-(cyclopropylmethyl)-3-(4-fluorophenyl)-5-methyl-4-oxo-4,5,6,7-tetrahydro-1H-pyrrolo[3,2-c]pyridin-2-yl]pyridin-2-yl}-2-(4-fluorophenyl)acetamide]
IC50: 0.818 µM

CC(C(=O)Nc1cc(-c2[nH]c3c(CC4CC4)cn(C)c(=O)c3c2-c2ccc(F)cc2)ccn1)c1ccc(F)cc1 (racemic) [Example 063, N-{4-[7-(cyclopropylmethyl)-3-(4-fluorophenyl)-5-methyl-4-oxo-4,5-dihydro-1H-pyrrolo[3,2-c]pyridin-2-yl]pyridin-2-yl}-2-(4-fluorophenyl)propanamide]
IC50: > 20 µM

Cn1ccc2[nH]c(-c3ccnc(NC(=O)C(CC(F)F)c4ccc(F)cc4)c3)c(-c3ccccc3)c2c1=O (single isomer, unassigned) [Example 007, 4,4-difluoro-2-(4-fluorophenyl)-N-[4-(5-methyl-4-oxo-3-phenyl-4,5-dihydro-1H-pyrrolo[3,2-c]pyridin-2-yl)pyridin-2-yl]butanamide]
IC50: 11.8 µM and 13.4 µM
